This note sets out measurements from patent publication US20250032476A1, “ALPHA-2A ADRENERGIC RECEPTOR MODULATORS AND USES THEREOF” (The Regents of the University of California, priority 2021, published 2025).

Each structure is given as a SMILES string. “And” between values parts separate entries of the source, which are not always exact repeats. Equal values may be shown once.

T2 sequence (P08913 whole entry): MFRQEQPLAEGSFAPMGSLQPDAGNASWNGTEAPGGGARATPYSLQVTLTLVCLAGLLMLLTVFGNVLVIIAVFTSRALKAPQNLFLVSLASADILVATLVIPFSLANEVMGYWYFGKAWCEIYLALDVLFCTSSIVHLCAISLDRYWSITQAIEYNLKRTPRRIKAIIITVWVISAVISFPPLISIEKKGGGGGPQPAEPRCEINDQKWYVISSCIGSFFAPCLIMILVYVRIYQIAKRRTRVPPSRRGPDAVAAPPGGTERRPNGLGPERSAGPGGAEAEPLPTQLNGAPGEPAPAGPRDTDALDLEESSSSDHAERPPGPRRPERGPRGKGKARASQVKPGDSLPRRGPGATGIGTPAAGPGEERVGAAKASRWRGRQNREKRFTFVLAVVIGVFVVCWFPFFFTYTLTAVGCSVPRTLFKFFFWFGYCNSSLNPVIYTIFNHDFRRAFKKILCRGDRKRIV
T1 sequence (P08913 whole entry): as above

One data set addresses T1, human α2AAR (Homo sapiens (Human), UniProt P08913). Description: DiscoverX HitHunter cAMP G-protein activation assay. The note with it: read-out: Gi/o Emax.
Procedure: DiscoverX HitHunter cAMP G-protein activation assay. […] Freezer stock cAMP Hunter cell lines were expanded, then seeded in a total volume of 20 uL into white walled, 384-well microplates and incubated at 37° C. prior to testing. For agonist determination, cells were incubated with compound samples in the presence of EC80 forskolin to induce response. Media was aspirated from cells and replaced with 15 uL 2:1 HBSS/10 mM Hepes: cAMP XS+Ab reagent. Intermediate dilution of sample stocks was performed to generate 4× sample in assay buffer containing 4× EC80 forskolin. […] Finally assay vehicle concentration was 1%. After sample incubation assay signal was generated through incubation with 20 uL cAMP XS+ED/CL lysis cocktail for one hour followed by incubation with 20 uL cAMP XS+EA reagent for three hours at room temperature. Microplates were read following signal generation with a PerkinElmer Envision Instrument for chemiluminescent signal detection. Compound activity was analyzed using CBIS data analysis suite. For Gi agonist mode, percentage activity is calculated using the following formula: % Activity=100%×(1−(mean RLU of test sample−mean RLU of MAX control)/(mean RLU of vehicle control−mean RLU of MAX control)). […] Each measurement was done in duplicate.
DiscoverX HitHunter cAMP G-protein activation assay. […] Freezer stock cAMP Hunter cell lines were expanded, then seeded in a total volume of 20 μL into white walled, 384-well microplates and incubated at 37° C. prior to testing. For agonist determination, cells were incubated with compound samples in the presence of EC50 forskolin to induce response. Media was aspirated from cells and replaced with 15 μL 2:1 HBSS/10 mM Hepes: cAMP XS+Ab reagent. Intermediate dilution of sample stocks was performed to generate 4× sample in assay buffer containing 4× EC80 forskolin. […] Finally assay vehicle concentration was 1%. After sample incubation assay signal was generated through incubation with 20 μL cAMP XS+ED/CL lysis cocktail for one hour followed by incubation with 20 μL cAMP XS+EA reagent for three hours at room temperature. Microplates were read following signal generation with a PerkinElmer Envision Instrument for chemiluminescent signal detection. Compound activity was analyzed using CBIS data analysis suite. For Gi agonist mode, percentage activity is calculated using the following formula: % Activity=100%×(1−(mean RLU of test sample−mean RLU of MAX control)/(mean RLU of vehicle control−mean RLU of MAX control)). […] Each measurement was done in duplicate.
Regarding `Brc1c(NC2=NCCN2)ccc2nccnc12` [Brimonidine, brimonidine, reference compound], the Emax was found to be 107 ± 7%.
Take `Cc1cccc([C@H](C)c2cnc[nH]2)c1C` [DEX, dexmedetomidine, reference compound]: the Emax was determined as 76 ± 3%.

A further data set relates to mice. Kind of data set: Rotarod motor test (motor impairment and sedation). The note with it: equi-analgesic doses (DEX: higher doses). The data set is classed as in vivo.
As for `Cc1cccc([C@H](C)c2cnc[nH]2)c1C` [DEX, dexmedetomidine, reference compound], the “Motor impairment / sedation in rotarod test” value is “significant impairment and complete sedation at higher doses”.

The next data set addresses T2, ALPHA-2A ADRENERGIC RECEPTOR (Homo sapiens (Human), UniProt P08913). Kind of data set: Gi recruitment (G protein). The note with it: Gi recruitment, Table 6, result in words. The data set is classed as cell-based.
On to `Clc1ncc2ccccc2c1Nc1ccncc1` [Compound 1718, 3-chloro-N-(pyridin-4-yl)isoquinolin-4-amine], for which the “functional classification (agonist / weak agonist)” value is on record as “agonist”.
`COc1ccc2cccc(Nc3ccncc3)c2c1` [PS71]: the “functional classification (agonist / weak agonist)” value is given as “agonist”.
In the case of `O=C1CCc2c(cccc2Nc2ccncc2)N1` [PS84], the “functional classification (agonist / weak agonist)” value is “agonist”.
Turning to `O=C1NCCc2c(Nc3ccncc3)cccc21` [PS86], the “functional classification (agonist / weak agonist)” value was “agonist”.

The data set is the same for the next values; noted with them: Gi recruitment, Table 6; read-out: EC50.
As to `Clc1ncc2ccccc2c1Nc1ccncc1` [Compound 1718, 3-chloro-N-(pyridin-4-yl)isoquinolin-4-amine], the EC50 came to 8 nM.
With `c1cc(Nc2ccncc2)c2sccc2c1` [Compound 4914], the half-maximal effective concentration (EC50) was found to be 6.8 nM.
Turning to `COc1ccc2cccc(Nc3ccncc3)c2c1` [PS71], the EC50 worked out at 89 nM.
Turning to `O=C1CCc2c(cccc2Nc2ccncc2)N1` [PS84], the EC50 amounted to 450 nM.
For the molecule `O=C1NCCc2c(Nc3ccncc3)cccc21` [PS86], the EC50 was determined as 3200 nM.

The same data set, now with this note: Gi recruitment, Table 6; read-out: Emax (%).
In the case of `Clc1ncc2ccccc2c1Nc1ccncc1` [Compound 1718, 3-chloro-N-(pyridin-4-yl)isoquinolin-4-amine], the Emax came to 45%.
As for `c1cc(Nc2ccncc2)c2sccc2c1` [Compound 4914], the Emax turned out to be 76%.

The same data set, now with this note: Gi recruitment, Tables 7-9; read-out: G protein EC50.
`O=C1CCc2ccc(C3=CCCNC3)cc21` [TP81]: the EC50 is 3000 nM.
Turning to `Nc1ccc(-c2ccc3[nH]ncc3c2F)cn1` [TP84, 5-(4-Fluoro-1H-indazol-5-yl)pyridin-2-amine], the half-maximal effective concentration (EC50) came to 1100 nM.
With `Nc1ccc(-c2ccc3[nH]ncc3c2Cl)cn1` [TP85, 5-(4-Chloro-1H-indazol-5-yl)pyridin-2-amine], the EC50 amounted to 220 nM.
Still for that read-out and setting: the same measure for `Nc1ccnc(Cc2ccc(F)cc2)c1` [TP94, 2-(4-Fluorobenzyl)pyridin-4-amine]: 5000 nM.

Staying with this data set, now noted: Gi recruitment, Tables 7-9; read-out: G protein Emax (%).
On to `COc1cc2[nH]ncc2cc1-c1ccc(N)nc1` [TP79, 5-(6-Methoxy-1H-indazol-5-yl)pyridin-2-amine], for which the Emax was less than 6%.
Take `O=C1CCc2ccc(C3=CCCNC3)cc21` [TP81]: the Emax came to 79%.
On to `Nc1ccc(-c2ccc3[nH]ncc3c2F)cn1` [TP84, 5-(4-Fluoro-1H-indazol-5-yl)pyridin-2-amine], for which the Emax was 49%.
The same measure, in the same setting: for `Nc1ccc(-c2ccc3[nH]ncc3c2Cl)cn1` [TP85, 5-(4-Chloro-1H-indazol-5-yl)pyridin-2-amine] the value was 81%; for `O=C1CCc2cc(C3=CCCNC3)ccc21` [TP90], less than 5%.
Same read-out and setting: the same measure for `Nc1ccnc(Cc2ccc(F)cc2)c1` [TP94, 2-(4-Fluorobenzyl)pyridin-4-amine]: 19%; for `CC1=CCc2cc(C3=CCCNC3)ccc21` [TP97, 5-(3-Methyl-1H-inden-6-yl)-1,2,3,6-tetrahydropyridine]: less than 10%.
Turning to `C=C(c1ccc(C(F)(F)F)cc1)c1cc(N)ccn1` [TP101, 2-(1-(4-(Trifluoromethyl)phenyl)vinyl)pyridin-4-amine], the Emax is less than 5%.
Same read-out and setting: for `C=C1CCc2cc(C3=CCCNC3)ccc21` [TP105, 5-(1-Methylene-2,3-dihydro-1H-inden-5-yl)-1,2,3,6-tetrahydropyridine] the value was less than 5%.

The data set is the same for the next values; noted with them: at 100 μM.
Consider `Nc1ccc(-c2cc(C(F)(F)F)c3[nH]ncc3c2)cn1` [TP87, 5-(7-(Trifluoromethyl)-1H-indazol-5-yl)pyridin-2-amine], for which the “G protein effect at 100 μM” value is reported as 27% at 100 μM.
`NC1CCc2ccc(C3=CCCNC3)cc21` (stereo not drawn) [TP92]: the “G protein effect at 100 μM” value amounted to 18% at 100 μM.

Another data set concerns the target α2AAR-Y431^7.43A/F (Homo sapiens, UniProt P08913, Y431A). Description: Gi activation (BRET) at α2AAR Y431^7.43 mutants. It is filed as cell-based.
Conditions: not given
On the procedure: Investigating the sensitivity of selected ligands to the receptor mutants α2AAR-D128^3.32A, α2AAR-D128^3.32T, α2AAR-D128^3.32L, α2AAR-S215^5.42A, α2AAR-Y409^6.55A, α2AAR-Y409^6.55T, α2AAR-Y409^6.55F, α2AAR-F427^7.39F, α2AAR-Y431^7.43A, and α2AAR-Y431^7.43F was determined by monitored G protein stimulation as described above transfecting the appropriate receptor together with Gαi1-RLucII and Gβ1/Gγ1-GFP10. […] Three to ten experiments were done in duplicate.
The sensitivity of selected ligands to the receptor mutants α2AAR-D128^3.32A, α2AAR-D128^3.32T, α2AAR-D128^3.32L, α2AAR-S215^5.42A, α2AAR-Y409^6.55A, α2AAR-Y409^6.55T, α2AAR-Y409^6.55F, α2AAR-F427^7.39F, α2AAR-Y431^7.43A, and α2AAR-Y431^7.43F was monitored by G protein activation as described above transfecting the appropriate receptor together with Gαi1-RLucII and Gβ1/Gγ2-GFP10. […] Similarly, the effect of the α2AAR-D128^3.32A, α2AAR-S215^5.42A, α2AAR-Y409^6.55A, α2AAR-Y409^6.55F, α2AAR-F427^7.39F, α2AAR-Y431^7.43A, and α2AAR-Y431^7.43F mutations on arrestin recruitment was evaluated as described above transfecting the appropriate receptor together with CAAX-rGFP, GRK2 and β-arrestin-2-RLucII. Data was analyzed as ligand induced changes in BRET compared to vehicle (deltaBRET). Three to seven experiments were done in duplicate.
For `NC[C@H](O)c1ccc(O)c(O)c1` [norepinephrine], the “Gi signaling at Y431^7.43A” value is “essentially eliminated”.

The next data set addresses T2, ALPHA-2A ADRENERGIC RECEPTOR
Kind of data set: Arrestin recruitment. It is filed as cell-based. The note with it: Tables 7-9.
On to `COc1cc2[nH]ncc2cc1-c1ccc(N)nc1` [TP79, 5-(6-Methoxy-1H-indazol-5-yl)pyridin-2-amine], for which the Emax was less than 10%.
`O=C1CCc2ccc(C3=CCCNC3)cc21` [TP81]: the Emax was less than 10%.
On the same count and under the same terms, the same measure for `Nc1ccc(-c2ccc3[nH]ncc3c2F)cn1` [TP84, 5-(4-Fluoro-1H-indazol-5-yl)pyridin-2-amine]: less than 10%.
`Nc1ccc(-c2cc(C(F)(F)F)c3[nH]ncc3c2)cn1` [TP87, 5-(7-(Trifluoromethyl)-1H-indazol-5-yl)pyridin-2-amine] gave an Emax of less than 10%.
The same measure, in the same setting: the same measure for `O=C1CCc2cc(C3=CCCNC3)ccc21` [TP90]: less than 5%.
The same measure, in the same setting: for `NC1CCc2ccc(C3=CCCNC3)cc21` (stereo not drawn) [TP92] the value was less than 5%; for `Nc1ccnc(Cc2ccc(F)cc2)c1` [TP94, 2-(4-Fluorobenzyl)pyridin-4-amine], less than 10%.
Molecule `CC1=CCc2cc(C3=CCCNC3)ccc21` [TP97, 5-(3-Methyl-1H-inden-6-yl)-1,2,3,6-tetrahydropyridine] displayed an Emax of less than 5%.
Same read-out and setting: the same measure for `C=C(c1ccc(C(F)(F)F)cc1)c1cc(N)ccn1` [TP101, 2-(1-(4-(Trifluoromethyl)phenyl)vinyl)pyridin-4-amine]: less than 5%.
`C=C1CCc2cc(C3=CCCNC3)ccc21` [TP105, 5-(1-Methylene-2,3-dihydro-1H-inden-5-yl)-1,2,3,6-tetrahydropyridine] yielded an Emax of less than 5%.

Still in this data set, the particulars now being: at 100 μM.
Turning to `Nc1ccc(-c2ccc3[nH]ncc3c2Cl)cn1` [TP85, 5-(4-Chloro-1H-indazol-5-yl)pyridin-2-amine], the “Arrestin effect at 100 μM” value was determined as 34% at 100 μM.

The next data set deals with T1, human α2AAR. Description: β-arrestin-2 recruitment, BRET biosensor assay in HEK293T cells. The note with it: HEK-293T, read-out: β-Arr-2 Emax.
Procedure: Bioluminescense resonance energy transfer. G protein mediated activation of human α2AAR and D2long was monitored with Gαi1-RLucII (71, 72) together with Gβ1 and Gγ1-GFP10. Arrestin recruitment was performed by enhanced bystander BRET using CAAX-rGFP and β-arrestin-2-RLucII as biosensors (all biosensors are provided from M. Bouvier, Université de Montréal, Canada) (71, 73) in the presence of GRK2 as described (66, 74). In brief, HEK293T cells were transfected with a total amount of 3.3 μg DNA per 10^6 cells using linear polyethyleneimine (PEI, Polysciences, 3:1 PEI:DNA ratio) and transferred into 96-well half-area plates (Greiner, Frickenhausen, Germany) at a density of 10,000 cells per well and incubated for 48 hrs. Medium was exchanged with PBS (Hank's balanced salt solution) and cells were stimulated with ligands at 37° C. for 10 min for Gαi stimulation or arrestin recruitment, respectively.
For `Clc1ncc2ccccc2c1Nc1ccncc1` [Compound 1718, 3-chloro-N-(pyridin-4-yl)isoquinolin-4-amine], the Emax was less than 5%.
Same read-out and setting: the same measure for `c1cc(Nc2ccncc2)c2sccc2c1` [Compound 4914]: less than 5%.
On the same count and under the same terms, for `COc1ccc2cccc(Nc3ccncc3)c2c1` [PS71] the value was less than 5%.

Still in this data set, the particulars now being: HEK-293T, read-out: β-arrestin-2 Emax.
Regarding `Clc1cccc(Cl)c1N=C1NCCN1` [CLON, clonidine, reference compound], the Emax was determined as 41 ± 3%.
`Cc1cccc([C@H](C)c2cnc[nH]2)c1C` [DEX, dexmedetomidine, reference compound]: the Emax is 60 ± 3%.

In a further data set the target is T1, human α2AAR. Description: Radioligand competition binding to human α2AAR (HEK293T membranes, [3H]RX82,1002). Conditions: human α2AAR; mean ± SEM (Table 3); read-out: Ki.
On to `c1ccc(Nc2cncc3ccccc23)cc1`, for which the Ki was more than 10000 nM.
On the same count and under the same terms, for `Nc1ccc(Nc2cncc3ccccc23)cc1` the value was 4600 ± 2100 nM.
With `c1ccc2c(Oc3ccncc3)cccc2c1`, the Ki worked out at 1800 ± 730 nM.
For the molecule `c1ccc2c(Nc3ccncc3)ncnc2c1`, the Ki stood at 6600 ± 1800 nM.
In the case of `Clc1ncc2ccccc2c1Nc1ccncc1` [Compound 1718, 3-chloro-N-(pyridin-4-yl)isoquinolin-4-amine], the Ki was determined as 22 ± 6.7 nM.
Take `c1cc(Nc2ccncc2)c2sccc2c1` [Compound 4914]: the Ki worked out at 7.2 ± 1 nM.
Regarding `COc1ccc2cccc(Nc3ccncc3)c2c1` [PS71], the Ki was 240 ± 120 nM.
Regarding `O=C1CCc2c(cccc2Nc2ccncc2)N1` [PS84], the Ki amounted to 500 ± 87 nM.
Same read-out and setting: for `O=C1NCCc2c(Nc3ccncc3)cccc21` [PS86] the value was 1200 ± 560 nM.

The target of the next data set is T1, human α2AAR. Kind of data set: Gαi G protein activation, BRET biosensor assay in HEK293T cells.
Conditions: not given
For `COc1ccc2cccc(Nc3ccncc3)c2c1` [PS71], the “Fold reduced Gi activity compared to ‘5879” value is 15 fold and 16 fold.

Still in this data set, the particulars now being: Gi EC50 ± SE, BRET biosensor, human α2AAR (Table 3).
Consider `Clc1ncc2ccccc2c1Nc1ccncc1` [Compound 1718, 3-chloro-N-(pyridin-4-yl)isoquinolin-4-amine], for which the EC50 came out at 14 nM.
On the same count and under the same terms, the same measure for `c1cc(Nc2ccncc2)c2sccc2c1` [Compound 4914]: 9.1 nM; for `COc1ccc2cccc(Nc3ccncc3)c2c1` [PS71]: 100 nM; for `O=C1CCc2c(cccc2Nc2ccncc2)N1` [PS84]: 840 nM.
Same read-out and setting: the same measure for `O=C1NCCc2c(Nc3ccncc3)cccc21` [PS86]: 3400 nM.

The data set is the same for the next values; noted with them: HEK-293T, read-out: Gi Emax @ 0.1 mM.
For the molecule `c1ccc(Nc2cncc3ccccc23)cc1`, the Emax is 57%.
On to `c1ccc2c(Oc3ccncc3)cccc2c1`, for which the Emax is 43%.

Still in this data set, the particulars now being: HEK-293T, read-out: Gi Emax ± SEM.
As to `Nc1ccc(Nc2cncc3ccccc23)cc1`, the Emax was less than 5%.
Regarding `c1ccc2c(Nc3ccncc3)ncnc2c1`, the Emax was less than 5%.
The same measure, in the same setting: the same measure for `Clc1ncc2ccccc2c1Nc1ccncc1` [Compound 1718, 3-chloro-N-(pyridin-4-yl)isoquinolin-4-amine]: 47%.
With `c1cc(Nc2ccncc2)c2sccc2c1` [Compound 4914], the Emax is 77%.
As for `COc1ccc2cccc(Nc3ccncc3)c2c1` [PS71], the Emax is 85%.
Consider `O=C1CCc2c(cccc2Nc2ccncc2)N1` [PS84], for which the Emax is 37%.
In the case of `O=C1NCCc2c(Nc3ccncc3)cccc21` [PS86], the Emax is 91%.

Staying with this data set, now noted: HEK-293T, read-out: Gαi Emax.
As for `Clc1cccc(Cl)c1N=C1NCCN1` [CLON, clonidine, reference compound], the Emax amounted to 115 ± 4%.
Still for that read-out and setting: for `Cc1cccc([C@H](C)c2cnc[nH]2)c1C` [DEX, dexmedetomidine, reference compound] the value was 105 ± 4%.
